Laboratory results as given in the NIST ThermoML archive (doi:10.1016/j.jct.2009.06.016).
Values joined by “and” are separate entries in the source; they are usually repeats but may differ in a detail not shown here. Identical values can stand only once.

Experiment: xn = mol fraction of the nth substance listed
Details: 101 kPa, Liquid, Vibrating tube method

CCCOCC(C)O (stereo not drawn) [1-propoxy-2-propanol] + O
mass density
Details	283.15 K	288.15 K	293.15 K	298.15 K	303.15 K
x1 = 0.001639	999.31 kg/m3	998.703 kg/m3	997.77 kg/m3	996.607 kg/m3	995.166 kg/m3
x1 = 0.003265	999.009 kg/m3	998.36 kg/m3	997.378 kg/m3	996.203 kg/m3	994.729 kg/m3
x1 = 0.01049	998.189 kg/m3	997.309 kg/m3	996.156 kg/m3	994.754 kg/m3	993.101 kg/m3
x1 = 0.01741	997.871 kg/m3	996.708 kg/m3	995.295 kg/m3	993.639 kg/m3	991.738 kg/m3
x1 = 0.02413	997.617 kg/m3	996.172 kg/m3	994.434 kg/m3	992.449 kg/m3	990.242 kg/m3
x1 = 0.02492	997.584 kg/m3	996.099 kg/m3	994.315 kg/m3	992.281 kg/m3	990.035 kg/m3
x1 = 0.03341	997.009 kg/m3	994.916 kg/m3	992.599 kg/m3	990.099 kg/m3	987.376 kg/m3
x1 = 0.0411	995.626 kg/m3	993.032 kg/m3	990.295 kg/m3	987.401 kg/m3	984.348 kg/m3
x1 = 0.04904	993.374 kg/m3	990.531 kg/m3	987.469 kg/m3	984.302 kg/m3	981.013 kg/m3
x1 = 0.05896	990.231 kg/m3	987.111 kg/m3	983.811 kg/m3	980.443 kg/m3	976.913 kg/m3
x1 = 0.06919	987.019 kg/m3	983.629 kg/m3	980.171 kg/m3	976.629 kg/m3	972.832 kg/m3
x1 = 0.07722	984.1 kg/m3	980.908 kg/m3	977.347 kg/m3	973.676 kg/m3	969.873 kg/m3
x1 = 0.08896	980.8 kg/m3	977.203 kg/m3	973.523 kg/m3	969.756 kg/m3	965.792 kg/m3
x1 = 0.09833	977.885 kg/m3	974.328 kg/m3	970.577 kg/m3	966.718 kg/m3	962.723 kg/m3
x1 = 0.1083	975.142 kg/m3	971.439 kg/m3	967.62 kg/m3	963.724 kg/m3	959.684 kg/m3
x1 = 0.1182	972.498 kg/m3	968.762 kg/m3	964.864 kg/m3	960.927 kg/m3	956.826 kg/m3
x1 = 0.1249	970.842 kg/m3	967.03 kg/m3	963.131 kg/m3	959.154 kg/m3	955.036 kg/m3
x1 = 0.1283	969.927 kg/m3	966.142 kg/m3	962.218 kg/m3	958.25 kg/m3	954.135 kg/m3
x1 = 0.1365	967.946 kg/m3	964.14 kg/m3	960.182 kg/m3	956.19 kg/m3	952.054 kg/m3
x1 = 0.1475	965.216 kg/m3	961.573 kg/m3	957.6 kg/m3	953.581 kg/m3	949.414 kg/m3
x1 = 0.1677	961.137 kg/m3	957.197 kg/m3	953.147 kg/m3	949.056 kg/m3	944.898 kg/m3
x1 = 0.1955	955.28 kg/m3	951.825 kg/m3	947.746 kg/m3	943.61 kg/m3	939.419 kg/m3
x1 = 0.2281	950.34 kg/m3	946.219 kg/m3	942.051 kg/m3	937.893 kg/m3	933.693 kg/m3
x1 = 0.2743	943.61 kg/m3	939.47 kg/m3	935.34 kg/m3	931.11 kg/m3	926.81 kg/m3
x1 = 0.3208	937.609 kg/m3	933.429 kg/m3	929.158 kg/m3	924.917 kg/m3	920.58 kg/m3
x1 = 0.3483	934.321 kg/m3	930.247 kg/m3	926.15 kg/m3	921.878 kg/m3	917.532 kg/m3
x1 = 0.3738	931.91 kg/m3	927.69 kg/m3	923.45 kg/m3	919.12 kg/m3	914.74 kg/m3
x1 = 0.4214	927.214 kg/m3	922.877 kg/m3	918.572 kg/m3	914.335 kg/m3	909.931 kg/m3
x1 = 0.4787	922.45 kg/m3	918.2 kg/m3	913.81 kg/m3	909.35 kg/m3	904.97 kg/m3
x1 = 0.5257	918.715 kg/m3	914.413 kg/m3	910.011 kg/m3	905.586 kg/m3	901.122 kg/m3
x1 = 0.548	916.854 kg/m3	912.761 kg/m3	908.503 kg/m3	904.085 kg/m3	899.604 kg/m3
x1 = 0.5771	915.29 kg/m3	910.9 kg/m3	906.52 kg/m3	902.07 kg/m3	897.57 kg/m3
x1 = 0.5977	913.887 kg/m3	909.422 kg/m3	905.093 kg/m3	900.499 kg/m3	896.129 kg/m3
x1 = 0.6247	912.186 kg/m3	907.847 kg/m3	903.425 kg/m3	898.961 kg/m3	894.432 kg/m3
x1 = 0.6264	–	907.647 kg/m3	903.218 kg/m3	898.785 kg/m3	894.261 kg/m3
x1 = 0.6385	911.37 kg/m3	906.945 kg/m3	902.498 kg/m3	897.87 kg/m3	893.542 kg/m3
x1 = 0.672	909.401 kg/m3	905.017 kg/m3	900.577 kg/m3	896.108 kg/m3	891.567 kg/m3
x1 = 0.6758	–	904.871 kg/m3	900.301 kg/m3	895.81 kg/m3	891.293 kg/m3
x1 = 0.6793	909.018 kg/m3	904.571 kg/m3	900.121 kg/m3	895.632 kg/m3	891.142 kg/m3
x1 = 0.7192	906.894 kg/m3	902.407 kg/m3	897.954 kg/m3	893.432 kg/m3	888.909 kg/m3
x1 = 0.7272	906.317 kg/m3	901.907 kg/m3	897.467 kg/m3	892.945 kg/m3	888.391 kg/m3
x1 = 0.7448	905.495 kg/m3	901.061 kg/m3	896.614 kg/m3	892.14 kg/m3	887.56 kg/m3
x1 = 0.7589	904.809 kg/m3	900.364 kg/m3	895.887 kg/m3	891.371 kg/m3	886.848 kg/m3
x1 = 0.7682	903.977 kg/m3	899.934 kg/m3	895.456 kg/m3	890.967 kg/m3	886.382 kg/m3
x1 = 0.7858	903.51 kg/m3	899.08 kg/m3	894.6 kg/m3	890.07 kg/m3	885.47 kg/m3
x1 = 0.7981	902.909 kg/m3	898.495 kg/m3	894.001 kg/m3	889.483 kg/m3	884.923 kg/m3
x1 = 0.8224	901.51 kg/m3	897.287 kg/m3	892.828 kg/m3	888.311 kg/m3	883.721 kg/m3
x1 = 0.8398	901.029 kg/m3	896.637 kg/m3	891.636 kg/m3	887.602 kg/m3	882.984 kg/m3
x1 = 0.8588	900.07 kg/m3	895.641 kg/m3	891.133 kg/m3	886.589 kg/m3	882.007 kg/m3
x1 = 0.8792	898.865 kg/m3	894.921 kg/m3	890.346 kg/m3	885.821 kg/m3	881.196 kg/m3
x1 = 0.8796	899.334 kg/m3	894.851 kg/m3	890.337 kg/m3	885.871 kg/m3	881.204 kg/m3
x1 = 0.8993	898.371 kg/m3	893.936 kg/m3	889.399 kg/m3	884.854 kg/m3	880.259 kg/m3
x1 = 0.9197	897.715 kg/m3 and 897.195 kg/m3	893.212 kg/m3 and 893.204 kg/m3	888.659 kg/m3 and 888.679 kg/m3	884.155 kg/m3 and 884.109 kg/m3	879.548 kg/m3 and 879.479 kg/m3
x1 = 0.9388	896.775 kg/m3	892.326 kg/m3	887.803 kg/m3	883.236 kg/m3	878.623 kg/m3
x1 = 0.9486	896.411 kg/m3	891.949 kg/m3	887.413 kg/m3	882.854 kg/m3	878.219 kg/m3
x1 = 0.9609	895.933 kg/m3	891.451 kg/m3	886.918 kg/m3	882.36 kg/m3	877.745 kg/m3
x1 = 0.9628	896.008 kg/m3	891.604 kg/m3	887.059 kg/m3	882.424 kg/m3	877.865 kg/m3
x1 = 0.9716	895.539 kg/m3	891.059 kg/m3	886.524 kg/m3	881.962 kg/m3	877.362 kg/m3
x1 = 0.9798	895.261 kg/m3	890.77 kg/m3	886.193 kg/m3	881.641 kg/m3	876.998 kg/m3
x1 = 0.9818	895.15 kg/m3	890.664 kg/m3	886.123 kg/m3	881.551 kg/m3	876.955 kg/m3
x1 = 0.9919	894.781 kg/m3	890.294 kg/m3	885.746 kg/m3	881.183 kg/m3	876.546 kg/m3
x1 = 1	894.462 kg/m3	889.963 kg/m3	885.456 kg/m3	880.837 kg/m3	876.279 kg/m3
